Entries after “also recorded” stand apart in the source; their conditions may differ. Read-outs that look alike come from different tables or passages of the source.
Key:
[1] = DPPH-radical scavenger assay (cell-free); format: biochemical; details: MeOH, 30 min
Protocol: The DPPH radical scavenging activities of the compounds were tested as described.
The compounds were dissolved in MeOH, and the solutions (120 µL) were dispensed into wells of a 96-well microplate. In all, 30 µL of the DPPH (Sigma-Aldrich, Steinheim, Germany) solution in MeOH (7.5 × 10^−3 M) was added to each well. The concentrations of the test compounds in the mixtures were 10 and 100 µM. The mixtures were shaken and left to stand for 30 min, and the absorbance of the resulting solutions was measured at 520 nm with a microplate reader MultiscanFC (ThermoScientific, Waltham, MA, USA). The radical scavenging activities of the compounds at 100 µM are presented as % relative to the control (MeOH alone), and the concentration scavenging 50% of the DPPH radical (EC50) was calculated for each compound.

[2] = test system: Neuro-2a cells; assay: Rotenone-induced cell model of Parkinson's disease (viability, MTT); details: 10 µM compound 1 h pretreatment, rotenone 10 µM, 24 h
Protocol: (§3) Neuroblastoma Neuro-2a line cells (1 × 10^4 cells/well) were treated with the test compounds at concentrations of 10 µM for 1 h, and then the neurotoxins at different concentrations were added to the neuroblastoma cell suspensions [40]. Rotenone (Sigma-Aldrich, USA) was used at 10 µM. Paraquat (Sigma-Aldrich, USA) was used at 500 µM. […] Cells incubated without neurotoxins and the test compounds and cells incubated with neurotoxins only were used as positive and negative controls, respectively. After 24 h of incubation, the cell viabilities were measured using the MTT method.

[3] = test system: Neuro-2a cells; assay: Paraquat-induced cell model of Parkinson's disease (viability, MTT); details: 10 µM compound 1 h pretreatment, paraquat 500 µM, 24 h
Protocol: as §3

[4] = MTT cytotoxicity assay, Neuro-2a cells; details: mouse
Protocol: (§4) Neuro-2a cells were cultured in DMEM medium containing 10% fetal bovine serum (Biolot, St. Petersburg, Russia) and 1% penicillin/streptomycin (Invitrogen, Carlsbad, CA, USA). Cells were incubated at 37 °C in a humidified atmosphere containing 5% (v/v) CO2 [43].
(§5) The in vitro cytotoxicities of the individual substances were evaluated using an MTT (3-(4,5-dimethylthiazol-2-yl)-2,5-diphenyltetrazolium bromide) assay, which was performed according to the manufacturer’s instructions (Sigma-Aldrich, St. Louis, MO, USA). […] Docetaxel was used as a reference substance.

[5] = test system: Neuro-2a cells; assay: 6-OHDA-induced cell model of Parkinson's disease (viability, MTT); format: cell-based, murine; details: 10 µM compound 1 h pretreatment, 6-OHDA 50 µM, 24 h
[6] = cell-free, cited from earlier work; for IC50: read-out: DPPH Scavenger Activity IC50
[7] = MTT cytotoxicity assay, PC-3 cells; format: cell-based; details: human
Protocol: (§1) 22Rv1, PC-3, and LNCaP cell lines were cultured according to the manufacturer’s instructions in 10% FBS/RPMI media (Invitrogen, Carlsbad, CA, USA). Cells were continuously kept in culture for a maximum of 3 months and were routinely inspected microscopically for stable phenotypes and regularly checked for contamination with mycoplasma. Cell line authentication was performed by DSMZ (Braunschweig, Germany) using highly polymorphic short tandem repeat loci.
(§2) Docetaxel was used as a reference substance.

[8] = test system: Neuro-2a cells; assay: ROS level in paraquat-treated Neuro-2a cells (H2DCF-DA); format: cell-based, murine; details: 10 µM compound 1 h, then paraquat 500 µM 1 h; neurotoxin alone 148.4 ± 6.9
Protocol: Cell suspensions (1×10^4 cells/well) were incubated with solutions of the test compound (10 µM) for 1 h. Then, 6-hydroxydopamine solution (Sigma-Aldrich, 50 µM) or paraquat solution (Sigma-Aldrich, 500 µM) were added to each well. After 30 min (for 6-hydroxydopamine) or 1 h (for paraquat), 20 μL of 2,7-dichlorodihydrofluorescein diacetate (H2DCF-DA) solution (Molecular Probes, final concentration […]) was added to each well, and the microplate was incubated for an additional 10 min at 37 °C. The intensity of dichlorofluorescin fluorescence was measured at λex = 485 nm and λem = 518 nm. The results are presented as % relative to the control.

[9] = target: T1, urease from Canavalia ensiformis (Canavalia ensiformis, UniProt P07374); assay: Cell-free urease inhibition assay (indophenol method); format: biochemical
T1 construct: purchased Sigma
T1 sequence (P07374 whole entry, looked up): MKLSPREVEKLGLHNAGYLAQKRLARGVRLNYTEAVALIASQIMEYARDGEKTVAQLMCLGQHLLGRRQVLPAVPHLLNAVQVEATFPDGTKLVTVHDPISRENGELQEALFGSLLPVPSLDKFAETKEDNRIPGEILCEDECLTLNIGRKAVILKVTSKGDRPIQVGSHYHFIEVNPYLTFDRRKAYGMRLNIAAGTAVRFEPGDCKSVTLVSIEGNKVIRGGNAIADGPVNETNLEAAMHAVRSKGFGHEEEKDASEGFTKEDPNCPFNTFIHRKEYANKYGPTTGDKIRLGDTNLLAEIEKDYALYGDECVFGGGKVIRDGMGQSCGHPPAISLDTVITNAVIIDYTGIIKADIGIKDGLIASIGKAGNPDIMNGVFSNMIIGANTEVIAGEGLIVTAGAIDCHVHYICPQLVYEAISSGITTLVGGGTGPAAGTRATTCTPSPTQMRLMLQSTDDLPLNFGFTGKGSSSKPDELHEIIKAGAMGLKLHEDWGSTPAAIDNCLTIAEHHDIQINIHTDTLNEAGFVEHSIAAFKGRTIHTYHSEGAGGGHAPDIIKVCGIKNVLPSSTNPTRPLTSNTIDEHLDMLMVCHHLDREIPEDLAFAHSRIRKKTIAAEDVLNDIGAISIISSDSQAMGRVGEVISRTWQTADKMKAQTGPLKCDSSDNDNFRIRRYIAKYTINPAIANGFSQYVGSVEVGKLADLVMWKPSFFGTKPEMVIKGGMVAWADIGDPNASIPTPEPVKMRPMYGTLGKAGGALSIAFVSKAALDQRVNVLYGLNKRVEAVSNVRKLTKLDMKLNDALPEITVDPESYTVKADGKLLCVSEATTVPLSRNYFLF

[10] = MTT cytotoxicity assay, LNCaP cells; format: cell-based; details: human
Protocol: as §1, §2

[11] = test system: Staphylococcus aureus; design: method as in Du et al. (supplement ref 5); details: ref Du et al. (supplement ref 5); cited from earlier work
[12] = MTT cytotoxicity assay, 22Rv1 cells; format: cell-based; details: human
Protocol: as §1, §2

[13] = test system: RAW264.7 cells; details: murine macrophage RAW264.7; potency similar to that in Neuro-2a; cited from earlier work
[14] = in vitro; details: mouse
Protocol: as §4, §5

Compound | IC50 [1] [µM] | increase in viability of rotenone-treated cells [2] | increase in viability of PQ-treated cells [3] | IC50 [4] [µM] | increase in viability of 6-OHDA-treated cells [5] | IC50 [6] [µM] | ROS Level, % of Control, Paraquat (PQ) [8] | IC50 [10] [µM] | further results
C=CC(C)(C)c1[nH]c2cc(CC=C(C)C)ccc2c1/C=C1\NC(=O)[C@]2(C[C@H](C)C=C[C@@H]2/C=C/c2c(O)cc(CC=C(C)C)c(O)c2C=O)NC1=O [Compound 1a, (+)-Cryptoechinuline B] | 122 ± 7.1 | neuroprotective activity; also recorded: significant increases | neuroprotective activity | > 100 | neuroprotective activity |  |  |  | DPPH Scavenger Activity IC50 [1]: weak; viability at 10 µM ([5]; Mus musculus, N2a, read-out: increase in viability of 6-OHDA-treated cells): 40.7%
C=CC(C)(C)c1[nH]c2cc(CC=C(C)C)ccc2c1/C=C1\NC(=O)[C@@]2(C[C@@H](C)C=C[C@H]2/C=C/c2c(O)cc(CC=C(C)C)c(O)c2C=O)NC1=O [Compound 1b, (−)-Cryptoechinuline B] | 118 ± 4.7 | inactive | protected | > 100 | inactive |  |  |  | DPPH Scavenger Activity IC50 [1]: weak
C=CC(C)(C)c1[nH]c2ccccc2c1C=C1NC(=O)C2(CC(C)C=CC2C=Cc2c(O)cc(CC=C(C)C)c(O)c2C=O)NC1=O (centres unmarked) [Compound 2, cryptoechinuline D] |  | did not show any cytoprotective effects | did not show any cytoprotective effects | > 100 | did not show any cytoprotective effects | 23.6 |  |  | DPPH Scavenger Activity IC50 [6]: strong
C=CC(C)(C)c1[nH]c2c(CC=C(C)C)cc(CC=C(C)C)cc2c1C[C@@H]1NC(=O)[C@H](C)NC1=O [Compound 3, echinulin] |  | inactive | inactive | > 100 |  | 29.9 | 90.3 ± 2.2 % of Control | 25.9 | IC50 [7]: 41.7 µM; IC50 [9]: 29.8 µM; antibacterial activity against Staphylococcus aureus [11]: antibacterial activity; IC50 [12]: 63.2 µM
C=CC(C)(C)c1[nH]c2ccccc2c1/C=c1\[nH]c(=O)c(=C)[nH]c1=O [Compound 4, neoechinulin B] |  | cytoprotective activity; also recorded: significant increases | inactive | 50.9 |  | 34 | 101.8 ± 7.6 % of Control |  | cytotoxicity against RAW264.7 cells [13]: cytotoxic
C=CC(C)(C)c1[nH]c2cc(CC=C(C)C)ccc2c1/C=c1\[nH]c(=O)c(=C)[nH]c1=O [Compound 5, neoechinulin C] |  | not active | protected | 40.6 |  | 31.1 | 97.4 ± 2.8 % of Control |  | 
C=CC(C)(C)c1[nH]c2ccccc2c1/C=C1\NC(=O)C(=O)NC1=O [Compound 6, neoechinulin E] |  | significant increases |  |  |  | 46 | 94.1 ± 2.9 % of Control |  | IC50 [14]: > 100 µM
C=CC(C)(C)c1[nH]c2cc(CC=C(C)C)ccc2c1/C=C1\NC(=O)C(=O)NC1=O [Compound 7, neoechinulin] | 62.6 ± 1.1 | not active | inactive | > 100 |  |  |  | 38.9 | IC50 [7]: 63.8 µM; IC50 [12]: 49.9 µM
CC(=O)O[C@@]12CO[C@@H]1C[C@H](O)[C@@]1(C)C(=O)[C@H](O)C3=C(C)[C@@H](OC(=O)[C@H](O)[C@@H](NC(=O)OC(C)(C)C)c4ccccc4)C[C@@](O)([C@@H](OC(=O)c4ccccc4)[C@H]21)C3(C)C [Docetaxel, reference compound] |  |  |  |  |  |  |  | 0.004 | 
NC(N)=S [Thiourea, reference compound] |  |  |  |  |  |  |  |  | IC50 ([9]; cell-free, 0.2-100.0 µM tested, pH 7.3-7.5, read-out: urease inhibition IC50): 23 µM
